How the values were obtained:
[1] = test system: human invasive MCF-7/6 mammary carcinoma cells; assay: Chick heart invasion (CHI) assay with MCF-7/6 aggregates; assay type: cell-based; conditions: MCF7/6, 192 h, lowest concentration at which an anti-invasive effect (histological grade I or II) was observed, 8 days, read-out: Lowest active concentration
Procedure: Chick heart invasion assays were performed as described earlier (Bracke et al. 2014). Precultured heart fragments of 9-day-old chicken embryos were confronted with MCF-7/6 aggregates on top of a semi-solid agar at 37° C. overnight, after which the confronting pairs were cultured in suspension for 8 days at 37° C., 10% CO2 in presence or absence of a test compound (in duplo). This procedure can also be performed with aggregates of 4T1-Luc cells, for which the suspension culture of the confronting pairs is performed for 3.5 days. All compounds were evaluated at 1 μM and 100 nM; depending on the outcome higher or lower concentrations were subsequently evaluated. Upon fixation in Bouin-Hollande, the cultures were dehydrated and embedded in paraffin. Sections of the confrontation cultures were stained with hematoxylin-eosin are blinded and scored by a trained person (Bracke et al., 2014).
In the chick heart invasion assay cancer cells are confronted with a fragment of normal tissue, so as not to neglect the contribution of the host tissue in the micro-ecosystem that governs tumor behavior. As such, precultured heart tissue fragments (PHFs), dissected from 9-day-old chicken embryos, may be confronted with aggregates of human invasive MCF-7/6 mammary carcinoma cells or other cells in the presence of a certain concentration of a test compound. After eight days for MCF-7/6, or another period depending on the cell type, the interaction between the cancer cells and the PHF is evaluated histologically and classified along a 5-grades subjective scale (Bracke et al. 2014). Grades III and IV are typical for invasion, while grades 0, I and II correspond to absence of invasion. Compounds that inhibit invasion of confronting cancer cells i.e. from III/IV to 0/I/II, are determined as anti-invasive. Possible alternative assays generally known in the art are the type I collagen invasion assay, wound healing assay and the matrigel invasion assay.
The chick heart invasion (CHI) assay is a phenotypic assay that confronts precultured heart tissue fragments (PHFs, ‘normal tissue’), obtained from 9-day-old chicken embryos, with aggregates of human invasive MCF-7/6 mammary carcinoma cells (Bracke et al. 2014). In the control situation, the MCF-7/6 cells encircle, invade and destroy the PHF over an 8-day period. Invasion in this assay is defined as the progressive occupation and destruction of the PHF by the MCF-7/6 cells. Three-dimensional reconstruction of this interaction is obtained by microscopic analysis of all consecutive histological sections of the culture. The read-out is an invasion score according to a 5-grades histological scale.
The CHI closely reproduces the temporal, spatial and histological invasion patterns in man. The co-culture set-up probes for effects on both tumor cells and host tissue, and thus interrogates potential pharmacological targets in either interaction partner. Its use of histological evaluation allows discerning anti-invasive action from cytotoxicity or other effects.
We have submitted flavones B1-B4, flavanones B5-B8 and the intermediate 2′-hydroxychalcones A9, All and A12 to the chick heart invasion assay using MCF-7/6 aggregates. All compounds were evaluated at 1 μM and 100 nM; depending on the outcome higher or lower concentrations were subsequently evaluated. […] This table also includes CHI data on chalcones A1, A2 and A5.

[2] = test system: 13B2 hTERT breast CAFs; assay: AFM spheroid stiffness, 13B2 hTERT breast CAFs; assay type: cell-based, human; conditions: 48 h during spheroid formation; for Young's modulus / spheroid stiffness: 1 μM; for spheroid stiffness: 10 μM
Text: (§1) It is well established that an increased tumor and ECM stiffness is associated with a negative prognosis as it promotes tumor growth, progression, therapy resistance, immunosuppression and metastasis. Stiffness is chiefly regulated by the action of the CAFs in the TME. Stiffness modulation is, therefore, a fitting read-out of activity in a screen for CAF modulators. To assess stiffness modulation, the stiffness of spheroids of CAF cells treated with test compounds was interrogated using atomic force microscopy (AFM) indentation and compared with untreated cells. AFM measurement of the stiffness (elasticity) of cells and spheroids is a technique well-known to those skilled in the art. AFM measures the force required to create a given deflection, this read-out is also known as the Young's modulus. AFM is widely used in biology and cancer research: altered physicochemical properties of live cells serve as a read-out of altered complex physiological processes.
(§2) U-shaped, 384-well ULA plates (cat. no. MS-9384UZ, S-bio) were seeded with a suspension of cell-specific culture media with cells. Cells were allowed to form spheroids for an appropriate time under treatment conditions before use in experiments. Cell culture dishes (cat. no. 734-2814, VWR) were filled with collagen gel and placed at 37° C. for an appropriate time to allow solidification. For each condition, spheroids were pooled in one cell culture dish. The medium was removed (stored at 37° C.) to promote attachment of the bottom of each spheroid to the collagen gel. The cell culture dishes were incubated at 37° C. After the incubation period, the stored medium was carefully (prevent detachment of spheroids) added to the dishes.
(§3) Mechanical measurements were performed using an atomic force microscope. To indent the spheroids an in-house made colloidal probe was used. Force curves were collected using an appropriate setpoint and probe speed (depending on the stiffness of the spheroids). On each spheroid multiple force curves were collected. Collected curves were then processed using the JPK DP software. Young's modulus was extracted from the force curves. All experiments were performed in biological triplicate.
(§4) To generate 3D cultures mimicking the complexity and pathophysiology of in vivo tumors, spheroids were used (cfr. point 4). Spheroids are considered to better simulate cellular heterogeneity, nutrient and oxygen gradients, cell-cell interactions, cell-matrix interactions, gene expression profiles, stromal interactions, therapeutic responses, multicellular resistance, drug penetration and anti-apoptotic signaling.

[3] = test system: primary glioblastoma (GBM) cells; assay: AFM spheroid stiffness, primary glioblastoma cells; assay type: cell-based, human; conditions: 10 μM, 48 h
Procedure: (§5) Selectivity for CAFs with respect to normal fibroblasts and other cell types was assessed by performing an identical experiment with normal fibroblasts and other cell types, where compounds were considered selective for CAFs if they only modulate CAF stiffness.
as §2, §3, §4

[4] = test system: primary human atrial fibroblasts; assay: AFM spheroid stiffness, primary human atrial fibroblasts; assay type: cell-based; conditions: 10 μM, 48 h
Procedure: as §5, §2, §3, §4

[5] = test system: HCA2 hTERT dermal fibroblasts; assay: AFM spheroid stiffness, HCA2 hTERT dermal fibroblasts; assay type: cell-based; conditions: HCA2 hTERT normal dermal fibroblasts; 10 μM, 48 h
Procedure: as §5, §2, §3, §4

[6] = test system: MCF-7/6 breast cancer cells; assay: AFM spheroid stiffness, MCF-7/6 breast cancer cells; assay type: cell-based, human; conditions: 10 μM, 48 h
Procedure: as §5, §2, §3, §4

[7] = test system: CAF03 glioblastoma CAFs; assay: AFM spheroid stiffness, CAF03 glioblastoma CAFs; assay type: cell-based; conditions: 10 μM, 48 h
Text: as §1, §2, §3, §4

COc1ccc(C(=O)/C=C/c2ccc(F)cc2)c(O)c1 [Compound A12, 3-(4-fluorophenyl)-1-(2-hydroxy-4-methoxyphenyl)prop-2-en-1-one] was tested, and the minimal effective concentration [1] was 1 µM.
With O=C(/C=C/c1ccccc1)c1ccccc1 [Compound A8, 1,3-Diphenvlprop2-en-1-one] the “Young's modulus / spheroid stiffness” value [2] was “did not have an effect”.
Work on COc1ccc(C(=O)/C=C/c2ccc(Cl)cc2)c(O)c1 [Compound A13, 3-(4-chlorophenyl)-1-(2-hydroxy-4-methoxyphenyl)prop-2-en-1-one] yielded a minimal effective concentration [1] of 0.1 µM.
Work on COc1cc2c(c(OC)c1OC)OC(c1ccc(F)cc1)CC2=O (centres unmarked) [Compound B6, 2-(4-Fluorophenyl)-6,7,8-dimethoxychroman-4-one] yielded a minimal effective concentration [1] of 100 µM.
COc1ccc(C(=O)/C=C/c2ccc(F)cc2)cc1C(F)(F)F [Compound A14, 3-(4-Fluorophenyl)-1-(4-methoxy-3-(trifluoromethyl)phenyl)prop-2-en-1-one] was tested, and the “Young's modulus / spheroid stiffness” value [2] was “decreased”.
COc1ccc2c(c1)OC(c1ccc(Cl)cc1)CC2=O (centres unmarked) [Compound B8, 2-(4-Chlorophenyl)-7-methoxvchroman-4-one] was tested, and the minimal effective concentration [1] was 0.1 µM.
For COc1ccc(C(=O)/C=C/c2ccc(F)cc2)cc1 [Compound A5, 3-(4-Fluorophenyl)-1-(4-methoxyphenyl)prop2-en-1-one], the minimal effective concentration [1] was 1 µM.
For COc1ccc2c(c1)OC(c1ccc(F)cc1)CC2=O (centres unmarked) [Compound B7, 2-(4-Fluorophenvl)-7-methoxvchroman-4-one], the minimal effective concentration [1] was 10 µM.
For Cc1ccc2c(c1)C(=O)C1(O)CCN(c3ccccc3)C1=N2 (centres unmarked) [blebbistatin, reference compound], the spheroid stiffness [3] was “reduced the stiffness”, the spheroid stiffness [4] was “reduced the stiffness” and the spheroid stiffness [5] was “reduced the stiffness”. For the same compound, the spheroid stiffness [6] was “reduced the stiffness”, the spheroid stiffness [7] was “active” and the spheroid stiffness [2] was “active”.
For COc1ccc(C(=O)/C=C/c2ccc(Cl)cc2)cc1 [Compound A2, 3-(4-Chlorophenyl)-1-(4-methoxyphenyl)prop2-en-1-one], the minimal effective concentration [1] was 0.01 µM.
In the case of C[C@@H](N)[C@H]1CC[C@H](C(=O)Nc2ccncc2)CC1 [Compound Y-27632, Y-27632, reference compound], the spheroid stiffness [3] is reported as “reduced the stiffness”, the spheroid stiffness [4] is reported as “reduced the stiffness” and the spheroid stiffness [5] is reported as “reduced the stiffness”. For the same compound, the spheroid stiffness [6] was “reduced the stiffness”, the spheroid stiffness [7] was “active” and the spheroid stiffness [2] was “active”.
In the case of COc1cc2c(=O)cc(-c3ccc(F)cc3)oc2c(OC)c1OC [Compound B2, 2-(4-Fluorophenyl)-6,7,8-trimethoxy-4H-chromen-4-one], the minimal effective concentration [1] is reported as 10 µM.
With C=C1[C@@H](C)[C@H]2[C@H](Cc3ccccc3)NC(=O)[C@]23[C@H](OC(C)=O)/C=C/[C@@](C)(O)C(=O)[C@@H](C)C/C=C/[C@H]3[C@@H]1O [cytochalasin D, reference compound] the spheroid stiffness [3] was “reduced the stiffness”, the spheroid stiffness [4] was “reduced the stiffness” and the spheroid stiffness [5] was “reduced the stiffness”. For the same compound, the spheroid stiffness [6] was “reduced the stiffness”, the spheroid stiffness [7] was “active” and the spheroid stiffness [2] was “active”.
Compound COc1ccc2c(=O)cc(-c3ccc(F)cc3)oc2c1 [Compound B3, 2-(4-Fluorophenyl)-7-methoxy-4H-chromen-4-one] has a minimal effective concentration [1] of 0.01 µM.
COc1cc2c(c(OC)c1OC)C(=O)CC(c1ccc(F)cc1)O2 (centres unmarked) [Compound B5, 2-(4-Fluorophenyl)-5,6,7-dimethoxychroman-4-one] showed a minimal effective concentration [1] of 0.1 µM.
For COc1cc(O)c(C(=O)/C=C/c2ccc(F)cc2)c(OC)c1OC [Compound A10, 3-(4-Fluorophenyl)-1-(6-hydroxy-2,3,4-trimethoxyphenyl)prop-2-en-1-one], the minimal effective concentration [1] was 0.01 µM.
COc1ccc2c(=O)cc(-c3ccc(Cl)cc3)oc2c1 [Compound B4, 2-(4-Chlorophenyl)-7-methoxy-4H-chromen-4-one] was tested, and the minimal effective concentration [1] was 0.01 µM.
